Source: ChEMBL document CHEMBL1201862, “PubChem BioAssay data set” (2004)
Activity calls are given as the source filed them.

What was measured:
[1] = target: T1, Aminopeptidase N (Plasmodium falciparum FcB1/Columbia, UniProt O96935); assay: P. falciparum M1AAP inhibitors, biochemical, fluorogenic H-Leu-NHMec substrate, 1536-well (AID 1445); design: species or system Plasmodium falciparum 3D7, 3D7
T1 sequence (O96935 whole entry): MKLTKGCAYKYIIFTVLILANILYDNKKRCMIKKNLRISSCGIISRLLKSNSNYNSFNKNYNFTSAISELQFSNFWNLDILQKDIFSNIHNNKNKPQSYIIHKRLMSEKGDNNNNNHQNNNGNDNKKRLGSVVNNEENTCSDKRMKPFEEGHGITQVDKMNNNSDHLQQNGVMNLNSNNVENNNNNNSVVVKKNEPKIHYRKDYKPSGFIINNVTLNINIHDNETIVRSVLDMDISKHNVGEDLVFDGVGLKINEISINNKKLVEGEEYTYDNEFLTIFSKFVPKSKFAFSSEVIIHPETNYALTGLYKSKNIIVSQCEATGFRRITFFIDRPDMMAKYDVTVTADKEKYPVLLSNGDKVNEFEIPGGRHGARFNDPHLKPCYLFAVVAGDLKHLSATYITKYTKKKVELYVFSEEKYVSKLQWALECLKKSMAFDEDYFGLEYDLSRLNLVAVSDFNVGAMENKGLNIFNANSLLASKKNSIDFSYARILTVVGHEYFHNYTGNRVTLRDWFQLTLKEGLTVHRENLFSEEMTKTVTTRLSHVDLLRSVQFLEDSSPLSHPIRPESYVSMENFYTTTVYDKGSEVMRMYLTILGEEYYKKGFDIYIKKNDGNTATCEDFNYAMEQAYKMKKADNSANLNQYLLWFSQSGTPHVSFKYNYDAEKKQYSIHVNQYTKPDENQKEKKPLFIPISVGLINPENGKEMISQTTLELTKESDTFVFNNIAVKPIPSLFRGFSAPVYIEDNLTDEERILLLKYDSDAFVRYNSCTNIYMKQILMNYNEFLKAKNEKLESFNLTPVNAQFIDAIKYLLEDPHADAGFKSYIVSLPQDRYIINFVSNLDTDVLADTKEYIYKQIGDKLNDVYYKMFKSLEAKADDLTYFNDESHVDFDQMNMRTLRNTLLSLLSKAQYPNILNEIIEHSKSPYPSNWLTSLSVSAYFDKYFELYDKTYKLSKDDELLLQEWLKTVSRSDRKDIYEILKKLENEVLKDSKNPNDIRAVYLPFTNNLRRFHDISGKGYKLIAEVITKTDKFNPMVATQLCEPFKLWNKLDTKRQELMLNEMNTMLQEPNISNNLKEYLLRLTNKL

[2] = cells; type: functional, cell-based
[3] = cells; type: functional, cell-based; remark: listed apart in the source
[4] = inhibitors of HIV Env-driven cell fusion, dose response, cherry-pick (AID 652057); type: functional, cell-based
[5] = off-target signal loss in HeLa-CEM21 co-culture – HeLa F-luc CTL cells, cherry-picked, counter-screen for HIV-1 Env fusion inhibitor project, dose response (AID 652040); type: functional, cell-based;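 further: potency for signal decrease marking cytotoxic or nonspecific inhibition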
[6] = target: T2, Coagulation factor XII (Homo sapiens, UniProt P00748); type: functional;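 further: activated factor XIIa alpha cleaving a fluorogenic AMC peptide substrate; inhibitor potency from loss of enzyme activity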
T2 sequence (P00748 whole entry): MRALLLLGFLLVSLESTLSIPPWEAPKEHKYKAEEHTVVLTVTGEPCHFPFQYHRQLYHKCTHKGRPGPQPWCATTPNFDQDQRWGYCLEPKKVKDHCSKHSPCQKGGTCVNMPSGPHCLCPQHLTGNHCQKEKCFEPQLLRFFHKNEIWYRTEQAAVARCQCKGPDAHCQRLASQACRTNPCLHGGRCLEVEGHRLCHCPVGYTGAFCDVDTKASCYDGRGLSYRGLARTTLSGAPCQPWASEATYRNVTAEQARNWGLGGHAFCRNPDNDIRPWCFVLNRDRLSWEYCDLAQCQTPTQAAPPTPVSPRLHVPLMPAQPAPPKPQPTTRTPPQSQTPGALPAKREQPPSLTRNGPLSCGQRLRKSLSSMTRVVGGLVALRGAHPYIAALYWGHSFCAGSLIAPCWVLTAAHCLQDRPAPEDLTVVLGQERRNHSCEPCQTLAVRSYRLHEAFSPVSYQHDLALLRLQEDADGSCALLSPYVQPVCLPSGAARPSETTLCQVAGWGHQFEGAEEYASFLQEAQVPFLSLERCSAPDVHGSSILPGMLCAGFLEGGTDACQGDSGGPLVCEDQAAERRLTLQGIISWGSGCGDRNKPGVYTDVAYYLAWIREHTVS

[7] = ZM109 Env clade C HIV-1 fusion inhibitors, dose response, HeLa effector, CEM target cells, luciferase, cherry-pick (AID 652058); type: functional, cell-based
[8] = inhibitors of clade B AD8 Env fusion, dose response, cell-based, cherry-pick (AID 652062); type: functional;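 further: luciferase signal from cell-cell fusion driven by HIV-1 clade B AD8 Env; potency is for inhibitors of fusion seen as a drop in luminescence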
[9] = CEM21 lymphoblast cell cytotoxicity, dose response, cytotoxicity control for viral fusion inhibitor project, CellTiter-Glo luminescence, cherry-picked (AID 652042); type: functional, cell-based;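 further: potency for signal decrease meaning cytotoxicity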
[10] = target: T3, Short transient receptor potential channel 4 (Mus musculus, UniProt Q9QUQ5); assay: mouse TRPC4 channel activators, dose response, cell-based, HEK293 TRPC4/mu-opioid, Fluo-4 calcium (AID 434937); type: functional
T3 sequence (Q9QUQ5 whole entry): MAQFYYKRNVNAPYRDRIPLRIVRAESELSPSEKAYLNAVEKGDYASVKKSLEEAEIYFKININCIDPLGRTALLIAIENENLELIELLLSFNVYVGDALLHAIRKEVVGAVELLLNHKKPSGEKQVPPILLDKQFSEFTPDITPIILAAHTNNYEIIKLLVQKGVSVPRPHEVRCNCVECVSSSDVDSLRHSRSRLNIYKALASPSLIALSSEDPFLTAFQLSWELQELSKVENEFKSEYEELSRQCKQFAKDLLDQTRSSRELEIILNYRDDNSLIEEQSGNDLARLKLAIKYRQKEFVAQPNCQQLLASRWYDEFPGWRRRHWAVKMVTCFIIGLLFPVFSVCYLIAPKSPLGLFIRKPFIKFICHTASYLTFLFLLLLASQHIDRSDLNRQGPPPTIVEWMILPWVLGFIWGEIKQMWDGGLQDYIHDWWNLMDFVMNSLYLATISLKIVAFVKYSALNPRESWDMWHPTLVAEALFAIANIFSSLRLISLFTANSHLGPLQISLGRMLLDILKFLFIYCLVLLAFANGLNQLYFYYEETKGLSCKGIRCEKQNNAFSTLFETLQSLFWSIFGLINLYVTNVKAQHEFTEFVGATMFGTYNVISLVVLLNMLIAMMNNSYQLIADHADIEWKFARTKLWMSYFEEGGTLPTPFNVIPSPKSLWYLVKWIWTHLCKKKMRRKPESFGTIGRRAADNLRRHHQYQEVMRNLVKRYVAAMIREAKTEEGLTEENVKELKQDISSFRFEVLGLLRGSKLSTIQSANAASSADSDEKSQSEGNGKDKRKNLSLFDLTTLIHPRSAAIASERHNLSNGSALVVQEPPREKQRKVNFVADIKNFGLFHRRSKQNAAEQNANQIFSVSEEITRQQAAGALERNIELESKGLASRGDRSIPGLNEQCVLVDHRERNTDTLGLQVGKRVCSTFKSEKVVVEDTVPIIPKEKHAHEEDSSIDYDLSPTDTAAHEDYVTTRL

[11] = tested on: Streptococcus; assay: Group A Streptococcus viability loss, dose response, counter-screen for streptokinase expression inhibitor project, luminescence, BacTiterGlo (AID 1915); type: functional, organism-based;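 further: potency for reduction of bacterial viability or growth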
[12] = tested on: Streptococcus sp. 'group A'; assay: growth inhibition of control SK(-) GAS strain, dose response, counter-screen for streptokinase expression inhibitor project, luminescence, kanamycin, BacTiterGlo, confirmation (AID 1900); type: functional, organism-based
[13] = target: T4, Streptokinase A (Streptococcus pyogenes serotype M1, UniProt P10520); assay: S. pyogenes streptokinase expression inhibitors, potency, dose response, plasminogen activation absorbance, OD405 (AID 1914); type: functional, Streptococcus pyogenes M1 GAS;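 further: secreted streptokinase activity via plasminogen activation per viability signal from cell pellet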
T4 sequence (P10520 whole entry): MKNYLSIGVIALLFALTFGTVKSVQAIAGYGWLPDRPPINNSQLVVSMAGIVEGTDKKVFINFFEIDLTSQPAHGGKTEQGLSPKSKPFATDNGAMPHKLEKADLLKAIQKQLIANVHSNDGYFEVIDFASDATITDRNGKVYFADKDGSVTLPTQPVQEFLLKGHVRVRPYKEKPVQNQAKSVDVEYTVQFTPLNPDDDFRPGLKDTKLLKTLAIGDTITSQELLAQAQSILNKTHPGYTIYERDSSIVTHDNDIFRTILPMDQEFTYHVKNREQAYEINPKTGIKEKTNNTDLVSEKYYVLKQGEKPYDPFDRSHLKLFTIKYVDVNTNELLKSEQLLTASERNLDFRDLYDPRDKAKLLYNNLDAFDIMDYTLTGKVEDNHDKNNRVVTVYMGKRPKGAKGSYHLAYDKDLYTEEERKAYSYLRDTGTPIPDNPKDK

[14] = insulin promoter down-regulators in MIN6 cells, imaging, high-content screening, mouse beta cells (AID 1628); type: functional
[15] = cytotoxicity in MIN6 insulinoma cells, dose response, cytotoxicity control, cell-based, mouse insulinoma (AID 2122); type: functional;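 further: confirmatory high-throughput counterscreen run to flag cytotoxic compounds; mouse MIN-6 beta cells carrying an insulin promoter eGFP reporter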
[16] = target: T5, Zinc finger protein mex-5 (Caenorhabditis elegans, UniProt Q9XUB2); assay: MEX-5/TCR-2 RNA interaction inhibitors, dose response, biochemical, C. elegans, fluorescence polarization (AID 1960)
T5 sequence (Q9XUB2 whole entry): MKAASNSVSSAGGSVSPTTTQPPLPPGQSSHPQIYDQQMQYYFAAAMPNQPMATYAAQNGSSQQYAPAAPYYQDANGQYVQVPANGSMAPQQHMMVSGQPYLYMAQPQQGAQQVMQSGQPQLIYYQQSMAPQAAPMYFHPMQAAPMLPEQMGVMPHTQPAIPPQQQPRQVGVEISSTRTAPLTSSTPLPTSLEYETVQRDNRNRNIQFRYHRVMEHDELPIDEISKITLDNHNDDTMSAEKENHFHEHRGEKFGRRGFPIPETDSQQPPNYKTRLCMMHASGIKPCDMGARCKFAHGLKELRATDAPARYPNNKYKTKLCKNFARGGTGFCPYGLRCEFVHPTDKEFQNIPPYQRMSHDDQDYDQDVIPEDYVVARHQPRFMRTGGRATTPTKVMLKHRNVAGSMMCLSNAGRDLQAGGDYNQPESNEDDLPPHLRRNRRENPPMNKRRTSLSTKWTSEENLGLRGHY

[17] = target: T6, RNA-binding protein pos-1 (Caenorhabditis elegans, UniProt G5EF15); assay: inhibitors of POS-1/mex-3 RNA binding, dose response, biochemical, fluorescence polarization (AID 1964);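 further: purified POS-1 fused to maltose binding protein made in E. coli; potency of compounds blocking POS-1 binding to fluorescent RNA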
T6 sequence (G5EF15 whole entry): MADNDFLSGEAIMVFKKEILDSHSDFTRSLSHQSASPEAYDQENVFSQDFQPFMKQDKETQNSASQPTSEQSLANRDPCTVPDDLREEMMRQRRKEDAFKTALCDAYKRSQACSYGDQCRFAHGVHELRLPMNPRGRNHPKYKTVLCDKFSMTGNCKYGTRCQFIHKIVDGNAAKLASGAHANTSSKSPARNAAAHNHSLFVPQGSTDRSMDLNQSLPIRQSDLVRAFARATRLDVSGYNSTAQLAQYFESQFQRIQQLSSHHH

## Nc1nc2nc(-c3cccs3)cc(C(F)(F)F)n2n1
[1]
  IC50: 61.4 µM (active)
[2]
  EC50: > 350 µM (not active)
[3]
  EC50: > 350 µM (not active)

## Cc1ccc(S(=O)(=O)N(CC(=O)NCCC2=CCCCC2)Cc2ccccc2)cc1
[4]
  AC50: 5.01 µM (active)
[5]
  AC50: 7.25 µM (active)
[6]
  IC50: > 50 µM (inactive)
[7]
  AC50: 10.7 µM (active)
[8]
  AC50: 10.2 µM (active)
[9]
  AC50: 41.1 µM (active)

## O=[N+]([O-])c1ccc(N2CCNCC2)c2ncccc12
[10]
  EC50: 37.3 nM (active)

## CN(C)c1ccc(C(=O)NN2C(=O)c3ccccc3C2=O)cc1
[6]
  IC50: > 50 µM (inactive)

## COc1cc(OC)cc(C(=O)NC(=S)NNC(=O)Cc2cccs2)c1
[11]
  EC50: 11.6 µM (active)
[10]
  EC50: 10600 nM (active)
[12]
  EC50: 814 nM (active)
[13]
  EC50: > 150 µM (not active)

## CN(C)C=O.Cc1ccc(-c2cc(-c3nnc(S)o3)c3ccccc3n2)cc1
[1]
  IC50: 35.5 µM (active)

## CN(C)C(CNC(=O)c1cccc(S(=O)(=O)N(C)C)c1)c1ccccc1 (configuration not stated)
[10]
  EC50: 299 nM (active)

## COC(=O)c1sccc1NC(=O)/C=C/c1c(Cl)cccc1Cl
[6]
  IC50: > 50 µM (inactive)

## Cc1sc2nc(-c3ccccn3)nc(O)c2c1-c1ccccc1
[14]
  IC50: 4.11 µM (active)
[11]
  EC50: 23.9 µM (active)
[15]
  IC50: 5.43 µM (active)
[12]
  EC50: 1250 nM (active)

## Cc1cc(O)nc(N/N=C/c2cc(C)n(CC(F)(F)F)c2C)n1
[14]
  IC50: 2 µM (active)
[15]
  IC50: 11.2 µM (inactive)

## O=C(O)c1cc(-c2ccc(/C=N/Nc3ccc([N+](=O)[O-])cn3)o2)ccc1Cl
[16]
  EC50: 6.29 µM (active)
[17]
  EC50: 31 µM (active)
[1]
  IC50: 12.7 µM (active)
